Data reported in patent US9062041B2 (Bayer Intellectual Property GmbH, priority 2011, dated 2015).

Assays:
Type in all cases: cell-based
[1] = target: EP4 subtype of the human PGE2 receptor (Homo sapiens, UniProt P35408); experiment: cAMP antagonism test on the human EP4 receptor (HTRF cAMP detection); conditions: selectivity towards hEP4, IC50 measured by cAMP antagonism test
Method in brief: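 Cells expressing human EP4 preincubated 20 min at RT with compound (0.8 nM–16.5 μM), then stimulated with PGE2 (0.3 nM in 3× solution, with IBMX) 60 min at RT. After lysis, cAMP measured by HTRF competition (665/620 nm ratio); antagonism seen as rise in FRET signal.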

[2] = target: EP2 subtype of the human PGE2 receptor (Homo sapiens, UniProt P43116); experiment: cAMP antagonism test on the human EP2 receptor (HTRF cAMP detection); conditions: hEP2 receptor, read-out: Antagonism hEP2 IC50
Method in brief: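 Cells expressing human EP2 preincubated 20 min at RT with compound (0.8 nM–16.5 μM), then stimulated 60 min with PGE2 (3× solution 1.5 nM) in PBS-IBMX. After 20 min lysis, cAMP measured by competitive HTRF with cAMP-d2 and Eu cryptate anti-cAMP antibody (665/620 nm ratio).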

human PGD receptor = target: T1, human PGD receptor (Homo sapiens, UniProt Q13258); experiment: cAMP antagonism test on the human prostaglandin D receptor (HTRF cAMP detection); conditions: selectivity towards hDP, IC50 measured by cAMP antagonism test
T1 sequence (Q13258 1-359): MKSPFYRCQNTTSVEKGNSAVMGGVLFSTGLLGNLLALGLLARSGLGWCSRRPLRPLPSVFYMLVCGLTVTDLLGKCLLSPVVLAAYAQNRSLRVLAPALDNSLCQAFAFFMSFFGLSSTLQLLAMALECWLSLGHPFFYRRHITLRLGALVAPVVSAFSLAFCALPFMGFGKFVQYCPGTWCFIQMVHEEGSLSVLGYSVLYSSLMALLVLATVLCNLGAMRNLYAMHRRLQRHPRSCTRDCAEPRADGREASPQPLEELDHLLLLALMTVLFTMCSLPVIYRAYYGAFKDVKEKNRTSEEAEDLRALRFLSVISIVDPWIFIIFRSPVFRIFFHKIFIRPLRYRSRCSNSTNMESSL
Method in brief: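 Cells pre-mixed with cAMP-d2 were preincubated with compound (0.8 nM–16.5 μM) for 20 min at RT, then stimulated with 3× PGD2 solution (6 nM, in PBS-IBMX) for 30 min at RT. After lysis (20 min), HTRF read at 665/620 nm; antagonism seen as rise in FRET ratio.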

EP2 subtype of the human PGE2 receptor, sequence (P43116 whole entry): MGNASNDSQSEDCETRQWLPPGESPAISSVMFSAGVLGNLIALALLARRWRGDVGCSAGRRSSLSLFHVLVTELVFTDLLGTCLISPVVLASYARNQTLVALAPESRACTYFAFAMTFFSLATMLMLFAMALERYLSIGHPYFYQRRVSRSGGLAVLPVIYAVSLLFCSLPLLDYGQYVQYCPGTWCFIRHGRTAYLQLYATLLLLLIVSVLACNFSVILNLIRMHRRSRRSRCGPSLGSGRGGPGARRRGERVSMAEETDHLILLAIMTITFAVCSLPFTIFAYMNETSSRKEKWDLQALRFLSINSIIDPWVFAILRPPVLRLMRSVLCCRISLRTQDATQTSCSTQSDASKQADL
EP4 subtype of the human PGE2 receptor, sequence (P35408 whole entry): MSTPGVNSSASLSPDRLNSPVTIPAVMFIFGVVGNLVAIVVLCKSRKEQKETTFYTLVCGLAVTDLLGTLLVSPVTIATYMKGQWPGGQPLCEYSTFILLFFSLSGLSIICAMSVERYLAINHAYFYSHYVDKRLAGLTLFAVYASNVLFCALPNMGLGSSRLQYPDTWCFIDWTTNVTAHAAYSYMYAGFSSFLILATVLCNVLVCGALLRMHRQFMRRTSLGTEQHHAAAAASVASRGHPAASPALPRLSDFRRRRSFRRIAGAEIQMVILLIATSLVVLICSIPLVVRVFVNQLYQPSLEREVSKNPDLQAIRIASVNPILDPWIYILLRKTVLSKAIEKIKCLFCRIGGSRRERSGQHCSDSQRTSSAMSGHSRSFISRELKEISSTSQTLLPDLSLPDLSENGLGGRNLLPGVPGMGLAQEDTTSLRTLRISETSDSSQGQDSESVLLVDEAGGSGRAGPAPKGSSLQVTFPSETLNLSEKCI

Compound	Selectivity hEP2/hEP4 [1]	IC50 [2] [nM]	Selectivity hEP2/hDP (human PGD receptor)
COCCNC(=O)c1ccc2nn(CC3CCN(C(=O)c4ccc(-c5ccc(F)cc5)cc4)CC3)cc2c1OC(F)F [Example 227, 4-(difluoromethoxy)-2-({1-[(4′-fluorobiphenyl-4-yl)carbonyl]piperidin-4-yl}methyl)-N-(2-methoxyethyl)-2H-indazol-5-carboxamide]	xxx (xxx > 100)	9.89	xxx (xxx > 100)
COCCNC(=O)c1ccc2nn(CC3CN(C(=O)c4ccc5cc(OC)ccc5c4)C3)cc2c1C [Example 176, N-(2-methoxyethyl)-2-{[1-(6-methoxy-2-naphthoyl)azetidin-3-yl]methyl}-4-methyl-2H-indazol-5-carboxamide]	xxx (xxx > 100)	7.77	xxx (xxx > 100)
Cc1c(C(=O)NCCOCC2CC2)ccc2nn(CC3CN(C(=O)c4ccc(-c5ccc(F)cc5)cc4)C3)cc12 [Example 157, N-[2-(cyclopropylmethoxy)ethyl]-2-({1-[(4′-fluorobiphenyl-4-yl)carbonyl]azetidin-3-yl}methyl)-4-methyl-2H-indazol-5-carboxamide]	xxx (xxx > 100)	13.6	xxx (xxx > 100)
Cc1cc2nn(CC3CN(C(=O)c4ccc(Cl)cc4)C3)cc2cc1C(=O)NCCOC(F)(F)F [Example 197, 2-{[1-(4-chlorobenzoyl)azetidin-3-yl]methyl}-6-methyl-N-[2-(trifluoromethoxy)ethyl]-2H-indazol-5-carboxamide]	xxx (xxx > 100)	63.2	xxx (xxx > 100)
Cc1c(C(=O)NCC2COCCO2)ccc2nn(CC3CN(C(=O)c4ccc(Cl)cc4)C3)cc12 (single isomer, unassigned) [Example 142, (R or S)-2-{[1-(4-chlorobenzoyl)azetidin-3-yl]methyl}-N-(1,4-dioxan-2-ylmethyl)-4-methyl-2H-indazol-5-carboxamide]	xx (xx: 10-100)	713	xx (xx: 10-100)
COCCNC(=O)c1ccc2nn(CC3CCN(C(=O)c4ccc(-c5ccc(OC)cc5)cc4F)CC3)cc2c1C [Example 43, 2-({1-[(3-fluoro-4′-methoxybiphenyl-4-yl)carbonyl]piperidin-4-yl}methyl)-N-(2-methoxyethyl)-4-methyl-2H-indazol-5-carboxamide]	xxx (xxx > 100)	4.82	xxx (xxx > 100)
COCCNC(=O)c1ccc2nn(CC3CCN(C(=O)c4ccc(F)cc4)CC3)cc2c1C [Example 22, 2-{[1-(4-fluoro-benzoyl)piperidin-4-yl]methyl}-N-(2-methoxyethyl)-4-methyl-2H-indazol-5-carboxamide]	xxx (xxx > 100)	30.3	xxx (xxx > 100)
COCCNC(=O)c1ccc2nn(CC3CN(C(=O)c4ccc(C5CC5)cc4)C3)cc2c1C [Example 124, 2-{[1-(4-cyclopropylbenzoyl)azetidin-3-yl]methyl}-N-(2-methoxyethyl)-4-methyl-2H-indazol-5-carboxamide]	xxx (xxx > 100)	7.99	xxx (xxx > 100)

Further lines, results first:

Selectivity hEP2/hEP4 [1]	IC50 [2] [nM]	Selectivity hEP2/hDP (human PGD receptor)	Compound
xxx (xxx > 100)	13.2	xxx (xxx > 100)	Cc1c(C(=O)NCC(F)(F)F)ccc2nn(CC3CCN(C(=O)c4cc5cc(Cl)ccc5n4C)CC3)cc12 [Example 294, 2-({1-[(5-chloro-1-methyl-1H-indol-2-yl)carbonyl]piperidin-4-yl}methyl)-4-methyl-N-(2,2,2-trifluoroethyl)-2H-indazol-5-carboxamide]
xxx (xxx > 100)	13.1	xxx (xxx > 100)	COCCNC(=O)c1ccc2nn(CC3CCN(C(=O)c4ccc(-c5cncc(Cl)c5)cc4)CC3)cc2c1C [Example 385, 2-({1-[4-(5-chloropyridin-3-yl)benzoyl]piperidin-4-yl}methyl)-N-(2-methoxy-ethyl)-4-methyl-2H-indazol-5-carboxamide]
xxx (xxx > 100)	30.4	xxx (xxx > 100)	Cc1c(C(=O)NCCS(C)(=O)=O)ccc2nn(CC3CCN(C(=O)c4ccc(Br)cc4)CC3)cc12 [Example 395, 2-{[1-(4-bromobenzoyl)piperidin-4-yl]methyl}-N-(2-mesylethyl)-4-methyl-2H-indazol-5-carboxamide]
xxx (xxx > 100)	3.07	xxx (xxx > 100)	COCCNC(=O)c1ccc2nn(CC3CCN(C(=O)c4ccc(-c5ccc(OC)cc5C)cc4)CC3)cc2c1C [Example 370, N-(2-methoxyethyl)-2-({1-[(4′-methoxy-2′-methylbiphenyl-4-yl)carbonyl]-piperidin-4-yl}methyl)-4-methyl-2H-indazol-5-carboxamide]
xxx (xxx > 100)	18.5	xxx (xxx > 100)	COCCNC(=O)c1ccc2nn(CC3CCN(C(=O)c4cn(C)c5ccccc45)CC3)cc2c1OC [Example 273, 4-methoxy-N-(2-methoxyethyl)-2-({1-[(1-methyl-1H-indol-3-yl)carbonyl]-piperidin-4-yl}methyl)-2H-indazol-5-carboxamide]
xxx (xxx > 100)	6.99	xxx (xxx > 100)	COCCNC(=O)c1ccc2nn(CC3CCN(C(=O)c4ccc(Oc5ccc(F)c(F)c5)cc4)CC3)cc2c1C [Example 359, 2-({1-[4-(3,4-difluorophenoxy)benzoyl]piperidin-4-yl}methyl)-N-(2-methoxy-ethyl)-4-methyl-2H-indazol-5-carboxamide]
xxx (xxx > 100)	13.2	xxx (xxx > 100)	COCCNC(=O)c1ccc2nn(CC3CCN(C(=O)c4ccc(-c5cncc(C(F)(F)F)c5)cc4)CC3)cc2c1C [Example 387, N-(2-methoxyethyl)-4-methyl-2-[(1-{4-[5-(trifluoromethyl)pyridin-3-yl]-benzoyl}piperidin-4-yl)methyl]-2H-indazol-5-carboxamide]
xxx (xxx > 100)	6.58	xxx (xxx > 100)	COCCNC(=O)c1ccc2nn(CC3CCN(C(=O)c4ccc(-c5ccc(C(F)(F)F)nc5)cc4)CC3)cc2c1C [Example 374, N-(2-methoxyethyl)-4-methyl-2-[(1-{4-[6-(trifluoromethyl)pyridin-3-yl]-benzoyl}piperidin-4-yl)methyl]-2H-indazol-5-carboxamide]
xxx (xxx > 100)	101	xxx (xxx > 100)	Cc1c(C(=O)NCC(F)(F)F)ccc2nn(CC3CCN(C(=O)c4ccc(-c5ccc(C(F)(F)F)nc5)cc4)CC3)cc12 [Example 321, 4-methyl-N-(2,2,2-trifluoroethyl)-2-[(1-{4-[6-(trifluoromethyl)pyridin-3-yl]-benzoyl}piperidin-4-yl)methyl]-2H-indazol-5-carboxamide]
xxx (xxx > 100)	28.3	xxx (xxx > 100)	COc1ccc2c(c1)cc(C(=O)N1CCC(Cn3cc4c(C)c(C(=O)NCC(F)(F)F)ccc4n3)CC1)n2C [Example 293, 2-({1-[(5-methoxy-1-methyl-1H-indol-2-yl)carbonyl]piperidin-4-yl}methyl)-4-methyl-N-(2,2,2-trifluoroethyl)-2H-indazol-5-carboxamide]
